The text below walks through data of patent publication US20210254056A1, “IDENTIFICATION AND TARGETED MODULATION OF GENE SIGNALING NETWORKS” (CAMP4 THERAPEUTICS CORPORATION, priority 2017, published 2021).

Counter-ions that a name gives are not always drawn. Like-named read-outs stand apart in the source and are kept apart here.

The test system of experiment [1] is hepatocytes. The experiment is described as follows: RNA-seq of hepatocytes stimulated with the compounds of Table 68.
Experiment [2] relates to primary human hepatocytes. The experiment is described as follows: RNA-seq of primary human hepatocytes treated with 39 small molecules (pilot and validation). The conditions noted are these: for significant modulation of gene expression: RNA-seq, p-value≤0.05, primary human hepatocytes, the modulated genes are listed in the block; for Number (#) of genes having significantly changed expression: pilot RNA-seq study of Example 2, significance: FPKM≥0.5, log 2(fold change)≥1, q-value ≤0.05.

The mark [3] stands for this setting: hepatocytes stimulated with the compound, RNA-seq, significance: FPKM≥1, q-value≤0.05, log 2 fold change≥1.5.

On to `Cc1c(C(=O)NN2CCCCC2)nn(-c2ccc(Cl)cc2Cl)c1-c1ccc(Cl)cc1` [Rimonabant], for which, in experiment [1] (setting [3]), the “# of genes having significantly altered expression” value was found to be 1392.

In the case of `CCC1=C(C)CN(C(=O)NCCc2ccc(S(=O)(=O)NC(=O)N[C@H]3CC[C@H](C)CC3)cc2)C1=O` [Gilmepiride], the “# of genes having significantly altered expression” value in experiment [1] turned out to be 39.

With `OCc1ccc(-c2ccc(-c3ccc(CO)s3)o2)s1` [RITA (NSC 652287)], the “# of genes having significantly altered expression” value in experiment [1] was 105.

As for `CCCCC/C=C\C/C=C\C/C=C\C/C=C\CCCC(=O)NCCCl` [ACEA], the “# of genes having significantly altered expression” value in experiment [1] is listed as 2.

As for `NCCc1c[nH]cn1` [Histamine], the “# of genes having significantly altered expression” value in experiment [1] (setting [3]) was 20.

Consider `CCN(CC)CCCC(C)Nc1ccnc2cc(Cl)ccc12` (centres unmarked) [Chloroquine phosphate], for which the “# of genes having significantly altered expression” value in experiment [1] came out at 573.

For the molecule `COc1cccc(-c2cc(NCc3ccc4c(c3)OCO4)nc(N)n2)c1` [Wnt agonist 1], in experiment [1], the “# of genes having significantly altered expression” value amounted to 138.

Regarding `CS[C@H]1SC[C@H]2C(=O)N(C)[C@@H](C(C)C)C(=O)OC[C@@H](NC(=O)c3cnc4ccccc4n3)C(=O)N[C@@H](C)C(=O)N(C)[C@@H]1C(=O)N(C)[C@@H](C(C)C)C(=O)OC[C@@H](NC(=O)c1cnc3ccccc3n1)C(=O)N[C@@H](C)C(=O)N2C` [Echinomycin], the “# of genes having significantly altered expression” value in experiment [1] came out at 7161.

Take `Oc1c(F)cc(-c2cnccc2-c2ccc(N3CCOCC3)cc2)cc1F` [LJI308]: in experiment [1], the “# of genes having significantly altered expression” value is reported as 1.

For `S=C(NCc1ccc2c(c1)OCO2)N1CCN(c2ncnc3c2oc2ccccc23)CC1` [Amuvatinib], the “# of genes having significantly altered expression” value in experiment [1] (setting [3]) was 2835.

Consider `CCNC1(C(N)=O)CCN(c2ncnc3c2nc(-c2ccccc2Cl)n3-c2ccc(Cl)cc2)CC1` [Otenabant], for which the “# of genes having significantly altered expression” value in experiment [1] (setting [3]) worked out at 36.

Turning to `Cc1ccc2nc(NC(=O)CSc3nc4c(c(=O)n3-c3ccccc3)SCC4)sc2c1` [IWP-2], the “# of genes having significantly altered expression” value in experiment [1] (hepatocytes stimulated with the compound, RNA-seq, […]) stood at 15.

In the case of `COc1ccc2[nH]c([S+]([O-])Cc3ncc(C)c(OC)c3C)nc2c1` (centres unmarked) [Omeprazole], the “# of genes having significantly altered expression” value in experiment [1] (setting [3]) is 61.

Regarding `COc1ccc(C(=O)Nc2sc3c(c2C(N)=O)CCCC3)cc1OC` [TCS 359], in experiment [1], the “# of genes having significantly altered expression” value is 63.

Turning to Activin, the “# of genes having significantly altered expression” value in experiment [1] (setting [3]) is 798.

With `CC1(C)CC=C(c2ccccc2)c2cc(/C=C/c3ccc(C(=O)O)cc3)ccc21` [MT-232, Bms189453], in experiment [2], the “significant modulation of gene expression” value (“significant modulation” below) is reported as “significantly (p-value≤0.05) modulate” and the “Number (#) of genes having significantly changed expression” value is 1.

Turning to `CC1=C(/C=C/C(C)=C/C=C/C(C)=C/C(=O)O)C(C)(C)CCC1` [MT-603, Tretinoin (ATRA)], in experiment [2], the “significant modulation” value is reported as “significantly (p-value≤0.05) modulate” and the “Number (#) of genes having significantly changed expression” value was 30.

For `O=c1cc(N2CCOCC2)oc2c(-c3ccccc3)cccc12` [LY294002], in experiment [1] (setting [3]), the “# of genes having significantly altered expression” value amounted to 981.

For `C[C@H]1[C@H]2N(C(=O)CN(C)N2C(=O)NCc2ccccc2)[C@@H](Cc2ccc(OP(=O)(O)O)cc2)C(=O)N1Cc1cccc2cccnc12` [PRI-724], in experiment [1], the “# of genes having significantly altered expression” value is 88.

As for `c1ccc2c(-c3cnn4cc(-c5ccc(N6CCNCC6)cc5)cnc34)ccnc2c1` [LDN193189], the “# of genes having significantly altered expression” value in experiment [1] is reported as 67.

Take `CN(CCOc1ccc(CC2SC(=O)NC2=O)cc1)c1ccccn1` (centres unmarked) [MT-361, Rosiglitazone maleate]: the “Number (#) of genes having significantly changed expression” value in experiment [2] was found to be 78.

Turning to `NCC(=O)Nc1ccc(-n2nc(C(F)(F)F)cc2-c2ccc3c(ccc4ccccc43)c2)cc1` [OSU-03012], the “# of genes having significantly altered expression” value in experiment [1] (setting [3]) was determined as 1786.

As for `OCCn1cc(-c2ccc3c(c2)CC/C3=N\O)c(-c2ccncc2)n1` [GDC-0879], the “# of genes having significantly altered expression” value in experiment [1] (setting [3]) was 274.

Consider `CC1(C)CC=C(c2cnc3ccccc3c2)c2cc(C(=O)Nc3ccc(C(=O)O)cc3)ccc21` [BMS 195614], for which the “# of genes having significantly altered expression” value in experiment [1] is reported as 46.

For `CCCCCCCCCCCCCCCCOC[C@H](COP(=O)([O-])OCC[N+](C)(C)C)OC(C)=O` [PAF-C-16], the “# of genes having significantly altered expression” value in experiment [1] came to 7.

With `O=C1NC(=O)/C(=C/c2cccc(C(F)(F)F)c2)S1` [SMI-4a], the “# of genes having significantly altered expression” value in experiment [1] was 1436.

As for `COc1ccc(C[C@H](NC(C)=O)C(=O)N[C@H]2[C@@H](O)[C@H](n3cnc4c(N(C)C)ncnc43)O[C@@H]2CO)cc1` [MT-993, N-Acetylpurinomycin], the “significant modulation” value in experiment [2] is on record as “significantly (p-value≤0.05) modulate”.

Consider `O=C(O)CC[C@H]1CC[C@@](c2cc(F)ccc2F)(S(=O)(=O)c2ccc(Cl)cc2)CC1` [MT-308, MK-0752], for which, in experiment [2], the “significant modulation” value is given as “significantly (p-value≤0.05) modulate”.

On to `CN1CCC(CNc2ccc3ncc(-c4cccc(OC(F)(F)F)c4)n3n2)CC1` [MT-254, SGI-1776], for which, in experiment [2], the “significant modulation” value is “significantly (p-value≤0.05) modulate” and the “Number (#) of genes having significantly changed expression” value was 64.

As for `CC(=O)Nc1ccc(O)cc1` [MT-922, Acetaminophen (paracetamol)], in experiment [2], the “Number (#) of genes having significantly changed expression” value was determined as 3.

In the case of `CO[C@H]1C[C@@H]2CC[C@@H](C)[C@@](O)(O2)C(=O)C(=O)N2CCCC[C@H]2C(=O)O[C@H]([C@H](C)C[C@@H]2CC[C@@H](O)[C@H](OC)C2)CC(=O)[C@H](C)/C=C(\C)[C@@H](O)[C@@H](OC)C(=O)[C@H](C)C[C@H](C)/C=C/C=C/C=C/1C` [MT-882, Rapamycin], the “Number (#) of genes having significantly changed expression” value in experiment [2] was found to be 67.

`c1cc(-c2cnn3cc(-c4ccc(OCCN5CCCCC5)cc4)cnc23)ccn1` [MT-334, Dorsomorphin]: the “Number (#) of genes having significantly changed expression” value in experiment [2] turned out to be 15.

`CC(C)c1nc(CN(C)C(=O)N[C@H](C(=O)N[C@@H](Cc2ccccc2)C[C@H](O)[C@H](Cc2ccccc2)NC(=O)OCc2cncs2)C(C)C)cs1` [MT-372, Ritonavir]: in experiment [2], the “significant modulation” value is “significantly (p-value≤0.05) modulate” and the “Number (#) of genes having significantly changed expression” value was 183.

As to `NNC(=O)c1ccncc1` [MT-312, Isoniazid], in experiment [2], the “significant modulation” value is reported as “significantly (p-value≤0.05) modulate” and the “Number (#) of genes having significantly changed expression” value turned out to be 14.

Turning to `c1ccc(-c2[nH]ncc2-c2ccnc3ccccc23)nc1` [MT-740, LY 364947], in experiment [2], the “significant modulation” value was “significantly (p-value≤0.05) modulate”.

Turning to `Oc1nc(-c2ccc(C(F)(F)F)cc2)nc2c1CSCC2` [MT-713, Xav939], in experiment [2], the “significant modulation” value is given as “significantly (p-value≤0.05) modulate” and the “Number (#) of genes having significantly changed expression” value was determined as 8.

Consider `CCOc1ccn(-c2ccc(F)cc2)c(=O)c1C(=O)Nc1ccc(Oc2ccnc(N)c2Cl)c(F)c1` [MT-375, Bms777607], for which, in experiment [2], the “significant modulation” value is listed as “significantly (p-value≤0.05) modulate” and the “Number (#) of genes having significantly changed expression” value worked out at 19.

Regarding `CCCCC(C)(C)[C@H](O)/C=C/[C@H]1[C@H](O)CC(=O)[C@@H]1C/C=C\CCCC(=O)O` [MT-937, DmPGE2], in experiment [2], the “significant modulation” value is “significantly (p-value≤0.05) modulate”.

Consider `CCCc1cc(=O)[nH]c(=S)[nH]1` [MT-127, Propylthiouracil], for which, in experiment [2], the “significant modulation” value is reported as “significantly (p-value≤0.05) modulate” and the “Number (#) of genes having significantly changed expression” value is given as 8.
